# Columns and labels:
# Type in all cases: cell-based
# [1] = system: Enterococcus faecium and faecalis (RESISTANT); details: geometric mean of 4-6 isolates
# Description: (§1) The antibacterial efficacy of the present compounds is illustrated by Table II. The minimal inhibitory concentrations (MICs) were determined using a standard broth micro-dilution assay.
# [2] = system: Enterococcus faecium and faecalis (SENSITIVE); test: MIC, standard broth micro-dilution assay, SENSITIVE enterococci; set-up: unit not given here; details: geometric mean of 4-6 isolates
# Description: as §1
# [3] = system: Staphylococcus aureus 446; test: MIC, standard broth micro-dilution assay, SA 446; set-up: unit not given here
# Description: as §1
# [4] = system: Staphylococcus aureus 489; test: MIC, standard broth micro-dilution assay, SA 489; set-up: unit not given here
# Description: as §1
# [5] = system: Staphylococcus aureus 447; test: MIC, standard broth micro-dilution assay, SA 447; set-up: unit not given here
# Description: as §1
# [6] = system: Staphylococcus haemolyticus 105; test: MIC, standard broth micro-dilution assay, SH 105; set-up: unit not given here
# Description: as §1
# [7] = system: Staphylococcus haemolyticus 415; test: MIC, standard broth micro-dilution assay, SH 415; set-up: unit not given here
# Description: as §1
# [8] = system: Staphylococcus epidermidis 270; test: MIC, standard broth micro-dilution assay, SE 270; set-up: unit not given here
# Description: as §1
# [9] = system: Streptococcus pyogenes C203; test: MIC, standard broth micro-dilution assay, SPY C203; set-up: unit not given here
# Description: as §1
# [10] = system: Streptococcus pneumoniae P1; test: MIC, standard broth micro-dilution assay, SPN P1; set-up: unit not given here
# Description: as §1
smiles,measurement,setting,value
"C[C@@H]1O[C@@H](O[C@@H]2c3ccc(c(Cl)c3)Oc3cc4cc(c3O[C@@H]3O[C@H](CO)[C@@H](O)[C@H](O)[C@H]3O[C@H]3C[C@](C)(NCc5ccc(-c6ccc(Cl)cc6)cc5)[C@@H](O)[C@H](C)O3)Oc3ccc(cc3Cl)[C@@H](O)[C@@H](NCCCCCCc3ccccc3)C(=O)N[C@@H](CC(N)=O)C(=O)N[C@H]4C(=O)N[C@H]3C(=O)N[C@@H]2C(=O)N[C@H](C(=O)O)c2cc(O)cc(O)c2-c2cc3ccc2O)C[C@](C)(N)[C@H]1O [Example 28, N^1 -(6-PHENYL-n-HEXYL)-N^DISACC -(p-(p-CHLOROPHENYL)BENZYL)DESLEUCYL-A82846B]",Minimal Inhibitory Concentration (MIC) RESISTANT,[1],6.7
same,Minimal Inhibitory Concentration (MIC) SENSITIVE,[2],7
same,Minimal Inhibitory Concentration (MIC) SA 446,[3],8
same,Minimal Inhibitory Concentration (MIC) SA 489,[4],8
same,Minimal Inhibitory Concentration (MIC) SA 447,[5],8
same,Minimal Inhibitory Concentration (MIC) SH 105,[6],4
same,Minimal Inhibitory Concentration (MIC) SH 415,[7],2
same,Minimal Inhibitory Concentration (MIC) SE 270,[8],4
same,Minimal Inhibitory Concentration (MIC) SPY C203,[9],4
same,Minimal Inhibitory Concentration (MIC) SPN P1,[10],16

# Reference: US5977063A, “Alkylated hexapeptides” (Eli Lilly and Company, priority 1998, dated 1999)
